Earlier results in patent US20070297991A1, “NEURAL CONDUIT AGENT DIS[…] SMOKING CESSATION AND OTHER APPLICATIONS” (MINU, L.L.C., priority 2006, published 2007).

Conditions: in vivo

Question: Which plasma half-life does the source give for CN1CCCC1c1cccnc1 (stereo not shown) [nicotine] here?
Answer: The plasma half-life was “approximately two”.
